Experimental findings from US9957264B2 (Merck Sharp & Dohme Corp., priority 2013, dated 2018) are described below.

For assay [1], the target named is JAK1 (recombinant purified GST-tagged catalytic domain) (Homo sapiens (Human), UniProt P23458). In words: Jak Biochemical HTRF Assay (JAK1). As to conditions: [ATP] 31.8 μM. The procedure, abridged:
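GST-tagged human catalytic domains of JAK1 or JAK2 phosphorylated a biotinylated peptide substrate for 120 min at room temperature after ATP addition. Reaction quenched with EDTA stop buffer containing streptavidin-Dylight 650 and Eu-pY20 antibody; HTRF 665/615 nm ratio normalized to untreated controls, IC50 from 4-parameter fit.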
(In general: TR-FRET usually uses a lanthanide donor and a delayed reading to cut background.)

Assay [2] concerns the target JAK2 (recombinant purified GST-tagged catalytic domain) (Homo sapiens (Human), UniProt O60674). Briefly: Jak Biochemical HTRF Assay (JAK2). As to conditions: [ATP] 8.5 μM.

The structures appear in SMILES notation.

JAK2 (recombinant purified GST-tagged catalytic domain), sequence (O60674 849-1124): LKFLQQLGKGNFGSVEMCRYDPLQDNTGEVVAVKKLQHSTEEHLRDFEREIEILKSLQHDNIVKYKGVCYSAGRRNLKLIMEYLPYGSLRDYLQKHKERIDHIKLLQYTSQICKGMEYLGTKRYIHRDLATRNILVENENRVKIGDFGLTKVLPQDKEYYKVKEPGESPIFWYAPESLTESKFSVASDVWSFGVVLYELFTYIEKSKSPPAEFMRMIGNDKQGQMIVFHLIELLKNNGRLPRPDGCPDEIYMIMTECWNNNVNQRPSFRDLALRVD
JAK1 (recombinant purified GST-tagged catalytic domain), sequence (P23458 875-1153): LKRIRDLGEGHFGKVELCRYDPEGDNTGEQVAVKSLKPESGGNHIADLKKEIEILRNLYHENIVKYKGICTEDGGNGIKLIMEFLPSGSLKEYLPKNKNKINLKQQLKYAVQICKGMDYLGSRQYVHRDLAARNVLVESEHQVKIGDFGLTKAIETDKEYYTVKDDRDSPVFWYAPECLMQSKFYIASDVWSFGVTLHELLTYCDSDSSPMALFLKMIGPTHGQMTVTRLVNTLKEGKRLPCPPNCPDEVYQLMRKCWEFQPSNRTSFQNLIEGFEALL

Broadly, the IC50 is the concentration that gives 50% inhibition. For `CC(C)(C)OC(=O)N1CCC(CC#N)(n2nc(Nc3ccc4c(c3)CN(C(C)(C)C)S4(=O)=O)c3c(=O)[nH]ccc32)CC1` [Example 5-23, tert-butyl 4-{3-[(2-tert-butyl-1,1-dioxido-2,3-dihydro-1,2-benzisothiazol-5-yl)amino]-4-oxo-4,5-dihydro-1H-pyrazolo[4,3-c]pyridin-1-yl}-4-(cyanomethyl)piperidine-1-carboxylate], the figures for the IC50 in assay [1] and in assay [2] were 0.24 nM and 0.34 nM, respectively.

As for `N#CC[C@@]1(n2nc(Nc3ccc(C(N)C(F)(F)F)cc3)c3c(=O)[nH]ccc32)CCCOC1` (single isomer, unassigned) [Example 5-187, {(3S)-3-[3-({4-[(1R or 1S)-1-amino-2,2,2-trifluoroethyl]phenyl}amino)-4-oxo-4,5-dihydro-1H-pyrazolo[4,3-c]pyridin-1-yl]tetrahydro-2H-pyran-3-yl}acetonitrile], the IC50 is 0.19 nM in assay [1] and 0.58 nM in assay [2].

As to `N#CC[C@]1(n2nc(Nc3ccc(OC(F)(F)F)cc3)c3c(=O)[nH]ccc32)CC[C@@H](NC2CCCCC2)CC1` [Example 18-20, Cis 2-(4-(cyclohexylamino)-1-(4-oxo-3-((4-(trifluoromethoxy)phenyl)amino)-4,5-dihydro-1H-pyrazolo[4,3-c]pyridin-1-yl)cyclohexyl)acetonitrile], the results for the IC50 in assay [1] and in assay [2] were 52.2 nM and greater than 1500 nM, respectively.

Take `N#CCC1(n2nc(Nc3ccc(C(F)(F)F)cc3)c3c(=O)[nH]ccc32)CCC(O)CC1` (stereo not drawn) [Example 18-5, (cis and trans) 2-(4-hydroxy-1-(4-oxo-3-((4-(trifluoromethyl)phenyl)amino)-4,5-dihydro-1H-pyrazolo[4,3-c]pyridin-1-yl)cyclohexyl)acetonitrile]: the IC50 is 4.14 nM in assay [1] and 84.6 nM in assay [2].

On to `COC1CN([C@H]2CC[C@](CC#N)(n3nc(Nc4ccc(Cl)cc4)c4c(=O)[nH]ccc43)CC2)C1` [Example 18-8, Trans 2-(1-(3-((4-chlorophenyl)amino)-4-oxo-4,5-dihydro-1H-pyrazolo[4,3-c]pyridin-1-yl)-4-(3-methoxyazetidin-1-yl)cyclohexyl)acetonitrile], for which the results for the IC50 in assay [1] and in assay [2] were 0.03 nM and 2.53 nM, respectively.

For `CC(C)(C)OC(=O)N1CCC(CC#N)(n2nc(Nc3ccc(S(=O)(=O)C(F)(F)F)cc3)c3c(=O)[nH]ccc32)CC1` [Example 5-76, tert-butyl 4-(cyanomethyl)-4-[4-oxo-3-({4-[(trifluoromethyl)sulfonyl]phenyl}amino)-4,5-dihydro-1H-pyrazolo [4,3-c]pyridin-1-yl] piperidine-1-carboxylate], the IC50 in assay [1] was determined as 0.9 nM; in assay [2], 7.89 nM.

Turning to `CN(C)S(=O)(=O)c1ccc(Nc2nn(C3(CC#N)CCN(Cc4c(F)ccc(F)c4F)CC3)c3cc[nH]c(=O)c23)cc1` [Example 8-11, 4-({1-[4-(cyanomethyl)-1-(2,3,6-trifluorobenzyl)piperidin-4-yl]-4-oxo-4,5-dihydro-1H-pyrazolo[4,3-c]pyridin-3-yl}amino)-N,N-dimethylbenzenesulfonamide], the IC50 in assay [1] stood at 0.24 nM; in assay [2], 0.28 nM.

In the case of `CN(C)S(=O)(=O)c1ccc(Nc2nn(C3(CC#N)CCN(C(=O)C4CCCCC4)CC3)c3cc[nH]c(=O)c23)cc1` [Example 9-8, 4-({1-[4-(cyanomethyl)-1-(cyclohexylcarbonyl)piperidin-4-yl]-4-oxo-4,5-dihydro-1H-pyrazolo[4,3-c]pyridin-3-yl}amino)-N,N-dimethylbenzenesulfonamide], the IC50 in assay [1] stood at 0.16 nM; in assay [2], 1.21 nM.

As to `CC(C)N(C)S(=O)(=O)c1ccc(Nc2nn([C@]3(CC#N)CC[C@@H](C(=O)OC(C)(C)C)OC3)c3cc[nH]c(=O)c23)cc1` [Example 5-91, (2S,5S)-tert-butyl 5-(cyanomethyl)-5-(3-((4-(N-isopropyl-N-methylsulfamoyl)phenyl)amino)-4-oxo-4,5-dihydro-1H-pyrazolo[4,3-c]pyridin-1-yl)tetrahydro-2H-pyran-2-carboxylate], the IC50 in assay [1] turned out to be 0.14 nM; in assay [2], 0.23 nM.

As for `CC(C)(C)OC(=O)N1CCC(CC#N)(n2nc(Nc3ccccc3)c3c(=O)[nH]ccc32)CC1` [Example 1-2, tert-butyl 4-(cyanomethyl)-4-(4-oxo-3-(phenylamino)-4,5-dihydro-1H-pyrazolo[4,3-c]pyridin-1-yl)piperidine-1-carboxylate], the IC50 amounted to 0.45 nM in assay [1] and 11.9 nM in assay [2].

With `CN1Cc2cc(Nc3nn([C@]4(CC#N)CC[C@H](N5CC(F)C5)CC4)c4cc[nH]c(=O)c34)ccc2S1(=O)=O` [Example 18-31], the IC50 in assay [1] was determined as 1.81 nM; in assay [2] it was 16.9 nM.

As for `CN1Cc2cc(Nc3nn(C4(CC#N)CCCCC4)c4cc[nH]c(=O)c34)ccc2S1(=O)=O` [Example 5-81, 2-(1-(3-((2-methyl-1,1-dioxido-2,3-dihydrobenzo[d]isothiazol-5-yl)amino)-4-oxo-4,5-dihydro-1H-pyrazolo[4,3-c]pyridin-1-yl)cyclohexyl)acetonitrile], the IC50 came out at 0.24 nM in assay [1] and 3.73 nM in assay [2].

Regarding `CC(C)(C)OC(=O)N1CCC(CC#N)(n2nc(Nc3ccc(F)cc3)c3c(=O)[nH]ccc32)CC1` [Example 5-48, tert-butyl 4-(cyanomethyl)-4-{3-[(4-fluorophenyl)amino]-4-oxo-4,5-dihydro-1H-pyrazolo[4,3-c]pyridin-1-yl}piperidine-1-carboxylate], the IC50 in assay [1] is 0.22 nM; in assay [2], 2.26 nM.

On to `COC(=O)N1CCC(CC#N)(n2nc(Nc3ccc(C(C)(O)C(F)(F)F)cc3)c3c(=O)[nH]ccc32)CC1` (single isomer, unassigned) [Example 5-141, (R or S)-methyl 4-(cyanomethyl)-4-(4-oxo-3-((4-(1,1,1-trifluoro-2-hydroxypropan-2-yl)phenyl)amino)-4,5-dihydro-1H-pyrazolo[4,3-c]pyridin-1-yl)piperidine-1-carboxylate], for which the IC50 in assay [1] stood at 0.18 nM; in assay [2] it was 0.43 nM.

For `CC(C)(C)OC(=O)c1ccc(Nc2nn(C3(CC#N)CCCC3)c3cc[nH]c(=O)c23)cc1` [Example 5-127, tert-butyl 4-((1-(1-(cyanomethyl)cyclopentyl)-4-oxo-4,5-dihydro-1H-pyrazolo[4,3-c]pyidin-3-yl)amino)benzoate], the IC50 in assay [1] turned out to be 4.76 nM; in assay [2], 30.5 nM.

With `CCN(CC(F)(F)F)C(=O)c1ccc(Nc2nn([C@]3(CC#N)CC[C@@H](C(=O)OC(C)(C)C)OC3)c3cc[nH]c(=O)c23)cc1C` [Example 20-14, (2S,5S)-tert-butyl 5-(cyanomethyl)-5-(3-((4-(ethyl(2,2,2-trifluoroethyl)carbamoyl)-3-methylphenyl)amino)-4-oxo-4,5-dihydro-1H-pyrazolo[4,3-c]pyridin-1-yl)tetrahydro-2H-pyran-2-carboxylate], the figures for the IC50 in assay [1] and in assay [2] were 0.28 nM and 0.51 nM, respectively.

In the case of `CC(C)S(=N)(=O)c1ccc(Nc2nn([C@]3(CC#N)CCCOC3)c3cc[nH]c(=O)c23)cc1` (single isomer, unassigned) [Example 5-232, 2-((3S)-3-(4-oxo-3-((4-(propan-2-yl-(S or R)-sulfonimidoyl)phenyl)amino)-4,5-dihydro-1H-pyrazolo[4,3-c]pyridin-1-yl)tetrahydro-2H-pyran-3-yl)acetonitrile], the IC50 in assay [1] was found to be 0.27 nM; in assay [2] it was 0.6 nM.
